From US12528796B2, “Modulators of RAS GTPase” (Tosk, Inc., priority 2019, dated 2026) come the findings set out here.

Usually IC50 stands for the concentration that inhibits the measured activity by half.

For one experiment, the system named is SW620 cells (KRAS-G12V). Briefly: Cell proliferation / cytotoxicity assay (CellTiter-Glo 2.0). Format: cell-based. The settings on record: Homo sapiens, SW-620, 72 h, SW620 cell line (KRAS-G12V), 72 hours incubation, luminescence (CellTiter-Glo 2.0); read-out: 5W620 IC50. As for the experimental part:
Compounds are assayed for inhibition of cell proliferation and killing cancer cells. Cytotoxicity assays are conducted according to the following general procedure. SW620 cells (ATCC CCL-227) are maintained in DMEM Low Glucose (Corning 10-014-CV) media supplemented with 10% fetal bovine serum and 1% PenStrep and grown at 37° C. in 5% CO2. Cells are plated into 96 well flat bottom plates (2 million/plate, ˜20,000/well, 200 μL media/well). The cells are allowed to settle and adhere to the plate bottom overnight. Compounds are diluted in media from a 10 mM stock solution starting at 50 μM, using 2-fold dilutions, in a column in a 96-well plate. Media is removed from the plate containing cells and replaced with media containing diluted compounds. Plates are incubated 72 hours at 37° C. in 5% CO2. Plates were allowed to come to room temperature and 100 μL CellTiter-Glo 2.0 reagent (Promega, G924C) is added at room temperature. Plates are shaken for 2 minutes, then allowed to stand for 15 minutes. Luminescence is read with FLx800 (BioTek Instruments). Data is plotted with GraphPad Prizm 8.0.
Dose response curves for the cytotoxicity of exemplary compounds against SW620 (KRAS-G12V) and MIA PaCa-2 (KRAS-G12C) cell lines are shown in FIG. 1A-1J.
Take `Cc1ccc2ccc(F)c(-c3ccc4nc(NC5CCN(Cc6ccc(F)cc6)CC5)nc(C)c4c3)c2n1` [Compound 19]: the IC50 was 5 to 10 µM.

For `Cc1nc(NC2CCN(C(=O)c3ccccc3Cl)CC2)nc2ccc(-c3cccc4c3CCCC4)cc12` [Compound 36], the IC50 is 5 to 10 µM.

Take `Cc1nc(N[C@H]2CC[C@@H](NC3Cc4cccc(Cl)c4C3)CC2)nc2ccc(Br)cc12` (stereo partly shown) [Compound 67]: the IC50 lay in the range of 5 to 10 µM.

`Cc1nc(N[C@H]2CC[C@@H](N)CC2)nc2ccc(-c3cccc4c3OCC(=O)N4)cc12` [Compound 71]: the IC50 lay in the range of 5 to 10 µM.

`COc1ncccc1-c1ccc2nc(NC3CCN(Cc4ccc(Cl)cc4)CC3)nc(C)c2c1` [Compound 55]: the IC50 is below 5 µM.

For `Cc1ncccc1-c1ccc2nc(NC3CCN(Cc4ccc(Cl)cc4)CC3)nc(C)c2c1` [Compound 54], the IC50 is below 5 µM.

`Cc1nc(NC2CCN(Cc3ccc(Cl)cc3)CC2)nc2ccc(-c3cccc4c3C(=O)CCO4)cc12` [Compound 63]: the IC50 is below 5 µM.

In the case of `Cc1nc(NC2CCN(C(=O)c3ccc(Cl)cc3)CC2)nc2ccc(-c3cccc4c3CCNC4)cc12` [Compound 7], the IC50 is 5 to 10 µM.

For the molecule `Cc1nc(NC2CCN(Cc3ccc(Cl)cc3)CC2)nc2ccc(-c3ccnc4ccc(Cl)cc34)cc12` [Compound 22], the IC50 lay within 5 to 10 µM.

`Cc1nc(NC2CCN(Cc3ccc(Cl)cc3)CC2)nc2ccc(-c3cccnc3OCC(C)C)cc12` [Compound 57]: the IC50 is 5 to 10 µM.

As for `Cc1nc(N[C@@H]2CCN(C(=O)c3ccc(Cl)cc3)[C@H](C)C2)nc2ccc(-c3cccc4c3OCCO4)cc12` [Compound 12], the IC50 fell in the range of 5 to 10 µM.

Consider `Cc1ccc2ccc(F)c(-c3ccc4nc(NC5CCNCC5)nc(C)c4c3)c2n1` [Compound 60], for which the IC50 was below 5 µM.

For `Cc1ncccc1-c1ccc2nc(N[C@H]3CC[C@@H](NC4Cc5cccc(Cl)c5C4)CC3)nc(C)c2c1` (stereo partly shown) [Compound 69], the IC50 lay within 5 to 10 µM.

`Cc1nc(NC2CCN(Cc3ccc(Cl)cc3)CC2)nc2ccc(-c3cccc4c3C(=O)CCC4)cc12` [Compound 32]: the IC50 was below 5 µM.

For `Cc1nc(NC2CCN(Cc3ccc(Cl)cc3)CC2)nc2ccc(-c3ccnc(N4CCOCC4)c3F)cc12` [Compound 46], the IC50 lay within 5 to 10 µM.

With `Cc1nc(NC2CCN(Cc3ccc(Cl)cc3)CC2)nc2ccc(-c3cccc4c3CC(=O)CO4)cc12` [Compound 64], the 50% inhibitory concentration (IC50) was below 5 µM.

Regarding `Cc1nc(NC2CCN(Cc3ccc(Cl)cc3)CC2)nc2ccc(-c3cccc4c3/C(=N/O)CCC4)cc12` [Compound 33], the IC50 is below 5 µM.

Turning to `Cc1nc(NC2CCN(Cc3ccc(Cl)cc3)CC2)ncc1-c1cccc2c1CCCC2` [Compound 31], the IC50 is below 5 µM.

With `Cc1nc(NC2CCN(Cc3ccc(Cl)cc3)CC2)nc2ccc(-c3ccncc3C(N)=O)cc12` [Compound 45], the IC50 was below 5 µM.

As to `Cc1nc(NC2CCN(Cc3ccc(Cl)cc3)CC2)nc2ccc(-c3cccc4c3OCCO4)cc12` [Compound 3, N-(1-(4-chlorobenzyl)piperidin-4-yl)-6-(2,3-dihydrobenzo[b][1,4]dioxin-5-yl)-4-methylquinazolin-2-amine], the IC50 was below 5 µM.

Consider `Cc1nc(NC2CCN(C(=O)c3ccc(F)cc3)CC2)nc2ccc(-c3cccc4c3OCCO4)cc12` [Compound 14], for which the concentration for half-maximal inhibition (IC50) is below 5 µM.

With `Cc1nc(NC2CCN(C(=O)c3ccccc3Cl)CC2)nc2ccc(-c3cccc4c3OCCO4)cc12` [Compound 16], the IC50 is below 5 µM.

For `Cc1nc(NC2CCN(Cc3ccc(Cl)cc3)CC2)nc2ccc(-c3cncc4[nH]ccc34)cc12` [Compound 58], the IC50 lay within 5 to 10 µM.

As to `Cc1nc(N2CC[C@H](N3Cc4ccccc4CC3=O)C2)nc2ccc(-c3cccc4c3OCCO4)cc12` [Compound 10], the IC50 lay in the range of 5 to 10 µM.

With `COc1cc(-c2ccc3nc(NC4CCN(Cc5ccc(Cl)cc5)CC4)nc(C)c3c2)ccn1` [Compound 50], the IC50 is 5 to 10 µM.

Turning to `Cc1nccc(-c2ccc3nc(NC4CCN(Cc5ccc(Cl)cc5)CC4)nc(C)c3c2)c1Cl` [Compound 52], the IC50 was below 5 µM.

For `Cc1nc(NC2CCN(Cc3ccc(Cl)cc3)CC2)nc2ccc(-c3cccc4c3OCC(=O)N4)cc12` [Compound 70], the IC50 was 5 to 10 µM.

As for `COc1nccc(-c2ccc3nc(NC4CCN(Cc5ccc(Cl)cc5)CC4)nc(C)c3c2)c1Cl` [Compound 53], the IC50 was below 5 µM.

Consider `Cc1nc(NC2CCN(Cc3ccc(Cl)cc3)CC2)nc2ccc(-c3cccc4c3NC(=O)CC4)cc12` [Compound 65], for which the IC50 is below 5 µM.

Regarding `Cc1nc(NC(C)c2cccnc2)nc2ccc(-c3cccc4c3CCCC4)cc12` (stereo not shown) [Compound 34], the 50% inhibitory concentration (IC50) fell in the range of 5 to 10 µM.

As to `COc1cccc(-c2ccc3nc(NC4CCN(Cc5ccc(Cl)cc5)CC4)nc(C)c3c2)n1` [Compound 48], the IC50 was in the range of 5 to 10 µM.

Consider `Cc1nccc(-c2ccc3nc(N[C@@H]4CC[C@H]5CC[C@@H](C4)N5Cc4ccc(Cl)cc4)nc(C)c3c2)c1Cl` [Compound 74], for which the IC50 was below 5 µM.

In the case of `Cc1nc(NC2CCN(Cc3ccc(Cl)cc3)CC2)nc2ccc(-c3cncc4ccccc34)cc12` [Compound 59], the IC50 fell in the range of 5 to 10 µM.

With `Cc1nc(N[C@H]2CC[C@@H](NC3Cc4cccc(Cl)c4C3)CC2)nc2ccc(-c3cccc4c3OCCO4)cc12` (stereo partly shown) [Compound 68], the IC50 was below 5 µM.

As for `COc1ccccc1C(=O)N1CCC(Nc2nc(C)c3cc(-c4cccc5c4OCCO5)ccc3n2)C[C@H]1C` (stereo partly shown) [Compound 26], the IC50 lay within 5 to 10 µM.

With `Cc1nc(N[C@@H]2CC[C@H]3CC[C@@H](C2)N3C(=O)c2ccc(Cl)cc2Cl)nc2ccc(-c3cccc4c3CCCC4)cc12` [Compound 73], the IC50 was in the range of 5 to 10 µM.

`Cc1nc(NC2CCN(C(=O)c3ccc(Cl)cc3)CC2)nc2ccc(-c3cccc4c3CCCC4)cc12` [Compound 23]: the IC50 is below 5 µM.

Take `Cc1nc(NC2CCN(Cc3ccc(Cl)cc3)CC2)nc2ccc(-c3cccnc3OC(C)C)cc12` [Compound 56]: the IC50 was below 5 µM.

`COc1c(Cl)cc(F)cc1-c1ccc2nc(NC3CCN(Cc4ccc(Cl)cc4)CC3)nc(C)c2c1` [Compound 20]: the IC50 was below 5 µM.

Consider `COc1c(Cl)cccc1-c1ccc2nc(NC3CCN(Cc4ccc(Cl)cc4)CC3)nc(C)c2c1` [Compound 28], for which the IC50 is below 5 µM.

Consider `Cc1nc(NC2CCN(Cc3ccc(Cl)cc3)CC2)nc2ccc(-c3ccncc3C#N)cc12` [Compound 44], for which the IC50 lay within 5 to 10 µM.

With `CC(=O)N1CCc2c(cccc2-c2ccc3nc(NC4CCN(C(=O)c5ccc(Cl)cc5)CC4)nc(C)c3c2)C1` [Compound 8], the IC50 lay in the range of 5 to 10 µM.

In the case of `Cc1nc(NC2CCN(C(=O)c3ccc(Cl)cc3)CC2)nc2ccc(-c3cccc4c3OCCO4)cc12` [Compound 2, (4-chlorophenyl)(4-((6-(2,3-dihydrobenzo[b][1,4]dioxin-5-yl)-4-methylquinazolin-2-yl)amino)piperidin-1-yl)methanone], the IC50 lay within 5 to 10 µM.

For the molecule `Cc1nc(NC2CCN(C(=O)c3ccc(Cl)cc3)[C@@H](C)C2)nc2ccc(-c3cccc4c3OCCO4)cc12` (stereo partly shown) [Compound 11], the IC50 was 5 to 10 µM.

As to `Cc1nc(NC2CCN(Cc3ccc(Cl)cc3)CC2)nc2ccc(-c3ccnc(N4CCCCC4)c3F)cc12` [Compound 47], the IC50 was below 5 µM.

As for `Cc1nc(NC2CCN(Cc3ccc(Cl)cc3)CC2)nc2ccc(-c3cc(F)cc4c3OC(C)(C)C(=O)N4)cc12` [Compound 30], the IC50 is below 5 µM.

On to `Cc1cccc(-c2ccc3nc(NC4CCN(Cc5ccc(Cl)cc5)CC4)nc(C)c3c2)c1C` [Compound 29], for which the IC50 was below 5 µM.

`Cc1nc(NC2CCN(C(=O)c3ccccc3Cl)[C@H](C)C2)nc2ccc(-c3cccc4c3OCCO4)cc12` (stereo partly shown) [Compound 27]: the IC50 is below 5 µM.

`Cc1nc(N2CCC(N3Cc4ccccc4CC3=O)C2)nc2ccc(-c3cccc4c3OCCO4)cc12` (stereo not shown) [Compound 9]: the IC50 was in the range of 5 to 10 µM.

`Cc1ccc2[nH]ncc2c1-c1ccc2nc(NC3CCN(Cc4ccc(Cl)cc4)CC3)nc(C)c2c1` [Compound 24]: the IC50 was below 5 µM.

`Cc1nc(NC2CCN(Cc3ccc(Cl)cc3)CC2)nc2ccc(-c3cccc4c3OCC3(CC3)CO4)cc12` [Compound 41]: the IC50 lay within 5 to 10 µM.

As for `COc1c(Cl)cccc1-c1ccc2nc(NC3CCN(C(=O)c4ccccc4Cl)CC3)nc(C)c2c1` [Compound 43], the IC50 was 5 to 10 µM.

Regarding `Cc1nc(NC2CCN(Cc3ccc(Cl)cc3)CC2)nc2ccc(-c3cccc4c3CCCC4)cc12` [Compound 21], the IC50 was below 5 µM.

With `COc1cccc(-c2ccc3nc(NC4CCN(Cc5ccc(Cl)cc5)CC4)nc(C)c3c2)c1OC` [Compound 39], the IC50 was below 5 µM.

For the molecule `Cc1nc(NC2CCN(C(=O)c3ccc(Cl)cc3)CC2)ncc1-c1ccccc1C(C)(O)c1ccccc1` (stereo not shown) [Compound 38], the IC50 fell in the range of 5 to 10 µM.

For `Cc1nc(NC2CCN(C(=O)c3ccc(Cl)cc3)CC2)nc2ccc(-c3cccc4[nH]nc(C)c34)cc12` [Compound 18], the IC50 was below 5 µM.

`Cc1nc(N[C@@H]2CC[C@@H](Cc3ccc(Cl)cc3)NC2)nc2ccc(-c3cccc4c3CCCC4)cc12` [Compound 37]: the half-maximal inhibitory concentration (IC50) is 5 to 10 µM.

Staying with this experiment, now noted: SW620 cell line (KRAS-G12V), 72 hours incubation, luminescence (CellTiter-Glo 2.0); read-out: 5W620 IC50.
Consider `Cc1nc(NC2CCN(C(=O)c3ccc(Cl)cc3)CC2)nc2ccc(-c3cccc4c3CCCC4)cc12` [Compound 35], for which the IC50 lay in the range of 5 to 10 µM.
